≈ marks a conversion by molar mass, not a printed value.
Target: T1, angiotensin-converting enzyme (ACE)
T1 construct: enzyme of the commercial ACE-kit WST (Dojin / Dojindo)
Test: ACE-kit WST, microplate absorbance
Assay type: biochemical
Details: measured on HPLC fraction Fr. B isolated from fermented kelp extract, identified as D-Trp; pH and temperature not given

IC50: 73 µg/mL (≈ 357 µM)
SMILES: N[C@H](Cc1c[nH]c2ccccc12)C(=O)O [D-Trp]

From paper PMC8470367, “Antihypertensive and Probiotic Effects of Hidakakombu (Saccharina angustata) Fermented by Lacticaseibacillus casei 001” (Foods, 2021)
